Measured values as given in patent US20240366612A1, “COMPOUNDS AND METHODS FOR MODULATING NUCLEIC ACID SPLICING” (REMIX THERAPEUTICS INC., priority 2021, published 2024).
Where a name gives a salt, the structure may show the parent alone.

How the values were obtained:
Type in all cases: cell-based
HTT mRNA = assay: Splicing RT-qPCR assay, HTT canonical (CJ) and alternative (AJ) junction mRNA; details: Homo sapiens, A673 or K562 cells, 24 hours treatment; for IC50: decrease in CJ mRNA; for AC50: increase in AJ mRNA
Protocol: (§1) Compounds described herein were used to modulate RNA transcript abundance in cells. The expression of a target mRNA was measured by detecting the formation of an exon-exon junction in the canonical transcript (CJ). A compound mediated exon-inclusion event was detected by observing an increase in formation of a new junction with an alternative exon (AJ). Real-time qPCR assays were used to detect these splicing switches and interrogate the potency of various compounds towards different target genes. A high-throughput real time quantitative PCR (RT-qPCR) assay was developed to measure these two isoforms of the mRNA (CJ and AJ) for exemplary genes, such as HTT, SMN2, and MYB, together with a control housekeeping gene, GAPDH or GUSB or PPIA, used for normalization. Briefly, the A673 or K562 cell line was treated with various compounds described herein (e.g., compounds of Formula (I)). After treatment, the levels of the HTT, MYB, or SMN2 mRNA targets were determined from each sample of cell lysate by cDNA synthesis followed by qPCR.
(§2) • Cells-to-CT 1-step kit: ThermoFisher A25602, Cells-to-CT lysis reagent: ThermoFisher 4391851C, TaqMan™ Fast Virus 1-Step Master Mix: ThermoFisher 4444436 • GAPDH: VIC-PL, ThermoFisher 4326317E (Assay: Hs99999905_ml)—used for K562/suspension cell lines • GUSB: VIC-PL, ThermoFisher 4326320E (Assay: Hs99999908_ml)—used for K562/suspension cell lines • PPIA: VIC-PL, ThermoFisher 4326316E (Assay: Hs99999904_ml)—used for A673/adherent cell lines
(§3) The A673 cell line was cultured in DMEM with 10% FBS. Cells were diluted with full growth media and plated in a 96-well plate (15,000 cells in 100 ul media per well). The plate was incubated at 37° C. with 5% CO2 for 24 hours to allow cells to adhere. An 11-point 3-fold serial dilution of the compounds was made in DMSO then diluted in media in an intermediate plate. Compounds were transferred from the intermediate plate to the cell plate with the top dose at a final concentration of 10 uM in the well. Final DMSO concentration was kept at or below 0.25%. The cell plate was returned to the incubator at 37° C. with 5% CO2 for an additional 24 hours.
(§4) The K562 cell line was cultured in IMDM with 10% FBS. For K562, cells were diluted with full growth media and plated in either a 96-well plate (50,000 cells in 50 uL media per well) or a 384-well plate (8,000-40,000 cells in 45 uL media per well). An 11-point 3-fold serial dilution of the compounds were made in DMSO then diluted in media in an intermediate plate. Compound was transferred from the intermediate plate to the cell plate with the top dose at a final concentration of 10 uM in the well. Final DMSO concentration was kept at or below 0.25%. Final volume was 100 uL for 96-well plate and 50 uL for 384-well plate. The cell plate was then placed in an incubator at 37° C. with 5% CO2 for 24 hours.
(§5) The cells were then gently washed with 50 uL-100 uL cold PBS before proceeding to addition of lysis buffer. 30 uL-50 μL of room temperature lysis buffer with DNAse I (and optionally RNAsin) was added to each well. Cells were shaken/mixed thoroughly at room temperature for 5-10 minutes for lysis to take place and then 3 uL-5 μL of room temperature stop solution was added and wells were shaken/mixed again. After 2-5 minutes, the cell lysate plate was transferred to ice for RT-qPCR reaction setup. The lysates could also be frozen at −80° C. for later use.
(§6) In some cases, a direct lysis buffer was used. An appropriate volume of 3×lysis buffer (10 mM Tris, 150 mM NaCl, 1.5%-2.5% Igepal and 0.1-1 U/uL RNAsin, pH 7.4) was directly added to either K562 or A673 cells in media and mixed by pipetting 3 times. The plates were then incubated at room temperature with shaking/rocking for 20-50 minutes to allow for lysis to take place. After this time, the cell lysate plate was transferred to ice to set up for the RT-qPCR reactions. The lysates could also be frozen at −80° C. for later use. […]

HTT CJ mRNA = assay: Gene panel canonical junction qPCR assay, HTT; details: Homo sapiens, larger gene panel, read-out: HTT IC50 (decrease in CJ mRNA levels)
Protocol: as §1, §3, §4
(§7) The data analysis was performed by first determining the ΔCt vs the housekeeper gene. This ΔCt was then normalized against the DMSO control (ΔΔCt) and converted to RQ (relative quantification) using the 2^(−ΔΔCt) equation. The RQ were then converted to a percentage response by arbitrarily setting an assay window of 3.5 and 4.0 ΔCt for HTT-CJ and MYB-CJ respectively and an assay window of 9 and 3 ΔCt for HTT-AJ and MYB-AJ in 96 well format (50,000 K562 cells/well and 15,000 A673 cells per well) and an assay window of 3 and 4 ΔCt for HTT-CJ and MYB-CJ respectively and an assay window of 5 and 3 ΔCt for HTT-AJ and MYB-AJ respectively in 384 well format (8,000 K562 cells/well example). […] The percentage response was then fitted to the 4 parametric logistic equation to evaluate the concentration dependence of compound treatment. The increase in AJ mRNA is reported as AC50 (compound concentration having […] in AJ increase) while the decrease in CJ mRNA levels is reported as IC50 (compound concentration having 50% response in CJ decrease).
(§8) Additional studies were carried out for a larger panel of genes using the protocol provided above. The junction between flanking upstream and downstream exons was used to design canonical junction qPCR assays. At least one of the forward primer, reverse primer or the CY5-labeled 5′ nuclease probe (with 3′ quencher such as ZEN/Iowa Black FQ) was designed to overlap with the exon junction to capture the CJ mRNA transcript. […]

MYB mRNA = assay: Splicing RT-qPCR assay, MYB canonical (CJ) and alternative (AJ) junction mRNA; details: Homo sapiens, A673 or K562 cells, 24 hours treatment; for IC50: decrease in CJ mRNA; for AC50: increase in AJ mRNA
Protocol: as §1, §2, §3, §4, §5, §6

SMN2 CJ mRNA = assay: Gene panel canonical junction qPCR assay, SMN2; details: Homo sapiens, larger gene panel, read-out: SMN2 IC50 (decrease in CJ mRNA levels)
Protocol: as §1, §3, §4, §7, §8

Target C CJ mRNA = assay: Gene panel canonical junction qPCR assay, Target C; details: Homo sapiens, larger gene panel, read-out: Target C IC50 (decrease in CJ mRNA levels)
Protocol: as §1, §3, §4, §7, §8

Row | SMILES | IC50 (HTT mRNA) [nM] | AC50 (HTT mRNA) [nM] | IC50 (HTT CJ mRNA) [nM] | IC50 (MYB mRNA) [nM] | AC50 (MYB mRNA) [nM] | IC50 (SMN2 CJ mRNA) [nM] | IC50 (Target C CJ mRNA) [nM]
1 | Cc1cn2cc(-c3cc4ncn([C@H]5CCNC[C@@H]5F)c(=O)c4s3)cc(F)c2n1 (relative stereo) [Compound 272, trans-6-{8-fluoro-2-methylimidazo[1,2-a]pyridin-6-yl}-3-[3-fluoropiperidin-4-yl]thieno[3,2-d]pyrimidin-4-one] | 1000 to 10000 | > 10000 | 1000 to 10000 | 1000 to 10000 | 1000 to 10000 | < 100 | > 10000
2 | Cc1cn2cc(-c3cc4ncn([C@H]5CCNC[C@H]5F)c(=O)c4s3)cc(F)c2n1 (relative stereo) [Compound 273, cis-6-{8-fluoro-2-methylimidazo[1,2-a]pyridin-6-yl}-3-[3-fluoropiperidin-4-yl]thieno[3,2-d]pyrimidin-4-one] | 100 to 1000 | 1000 to 10000 | 100 to 1000 | 100 to 1000 | 100 to 1000 | 100 to 1000 | 1000 to 10000
3 | Cc1cn2cc(-c3cc4ncn([C@H]5CCN[C@H](C)C5)c(=O)c4s3)cc(F)c2n1 (relative stereo) [Compound 277, 6-{8-fluoro-2-methylimidazo[1,2-a]pyridin-6-yl}-3-[(trans)-2-methylpiperidin-4-yl]thieno[3,2-d]pyrimidin-4-one] | 100 to 1000 | 100 to 1000 | 100 to 1000 | 100 to 1000 | 100 to 1000 | < 100 | 1000 to 10000
4 | Cc1cn2cc(-c3cc4ncn([C@H]5CCN[C@@H](C)C5)c(=O)c4s3)cc(F)c2n1 (relative stereo) [Compound 278, 6-{8-fluoro-2-methylimidazo[1,2-a]pyridin-6-yl}-3-[(cis)-2-methylpiperidin-4-yl]thieno[3,2-d]pyrimidin-4-one hydrochloride] | 100 to 1000 | 100 to 1000 | 100 to 1000 | 100 to 1000 | 100 to 1000 | < 100 | 100 to 1000
5 | Cc1cc(-c2cc(=O)n3cc(N4CCN(C)CC4)sc3n2)cc2cn(C)nc12 [Compound 109, 7-(2,7-dimethyl-2H-indazol-5-yl)-2-(4-methylpiperazin-1-yl)-5H-thiazolo[3,2-a]pyrimidin-5-one] | > 10000 | > 10000 | > 10000 | > 10000 | 1000 to 10000 | > 10000 | > 10000
6 | Cc1cc(-c2cc(=O)n3nc(N4CCN(C)CC4)sc3n2)cc2cn(C)nc12 [Compound 157, 7-(2,7-dimethyl-2H-indazol-5-yl)-2-(4-methylpiperazin-1-yl)-5H-[1,3,4]thiadiazolo[3,2-a]pyrimidin-5-one] | > 10000 | > 10000 | > 10000 | > 10000 | > 10000 | > 10000 | > 10000
7 | Cc1cn2cc(-c3cc(=O)n4nc(N5CCN(C)CC5)sc4n3)cc(F)c2n1 [Compound 159, 7-(8-fluoro-2-methylimidazo[1,2-a]pyridin-6-yl)-2-(4-methylpiperazin-1-yl)-5H-[1,3,4]thiadiazolo[3,2-a]pyrimidin-5-one] | 1000 to 10000 | 1000 to 10000 | 1000 to 10000 | 1000 to 10000 | 1000 to 10000 | 1000 to 10000 | 1000 to 10000
8 | Cc1cn2nc(-c3cc(=O)n4cc(N(C)C5CC(C)(C)NC(C)(C)C5)sc4n3)cc(C)c2n1 [Compound 205, 7-(2,8-dimethylimidazo[1,2-b]pyridazin-6-yl)-2-(methyl(2,2,6,6-tetramethylpiperidin-4-yl)amino)-5H-thiazolo[3,2-a]pyrimidin-5-one] | 1000 to 10000 | 1000 to 10000 | 1000 to 10000 | 1000 to 10000 | 1000 to 10000 | 1000 to 10000 | 1000 to 10000
9 | Cc1cc(-c2nn3c(=O)cc(N4CCNCC4)nc3s2)cc2cn(C)nc12 [Compound 206, 2-(2,7-dimethyl-2H-indazol-5-yl)-7-(piperazin-1-yl)-5H-[1,3,4]thiadiazolo[3,2-a]pyrimidin-5-one] | 1000 to 10000 | 1000 to 10000 | 1000 to 10000 | 1000 to 10000 | 1000 to 10000 | 100 to 1000 | 1000 to 10000
10 | Cc1cn2cc(-c3cc(=O)n4cc(N5CCNC6(CC6)C5)sc4n3)cc(F)c2n1 [Compound 207, 7-(8-fluoro-2-methylimidazo[1,2-a]pyridin-6-yl)-2-(4,7-diazaspiro[2.5]octan-7-yl)-5H-thiazolo[3,2-a]pyrimidin-5-one] | > 10000 | > 10000 | > 10000 | 1000 to 10000 | > 10000 | 100 to 1000 | > 10000
